Tests used:
[1] = tested on: muscle myosin; experiment: Incorporation of ^2H from ^2H2O into urinary 3-methyl-histidine (muscle myosin biosynthesis); type: in vivo; conditions: human subjects, intake of ^2H2O for 4-8 weeks
From the text: An individual undergoing a physical training program or medical therapeutic regimen intended to increase muscle mass by increasing muscle myosin biosynthesis (e.g., an athlete; an elderly person receiving physical therapy after a stroke; a patient with cachexia related to cancer or AIDS who is receiving nutritional or anabolic agent therapy) is given a labeled precursor that is incorporated into the body's proteins during biosynthesis. […] […] […] Total urinary amino acids are isolated with an SPE column. The amino acids are derivatized for gas chromatographic/mass spectrometric analysis. […] The derivatized amino acids are injected into a gas chromatograph/mass spectrometer (e.g., HP 5973 instrument), using, e.g., a DB-225 column. The mass spectrum of the 3-methyl histidine peak is collected while monitoring mass isotopomers at m/z 267 and 268 (parent and M+1 ions, respectively). Relative abundances of the above mass isotopomers are quantified in samples and compared to unlabeled standards ([…] 267+268]=0.1200 in samples and 0.0960 in standards). The proportion of labeled:unlabeled molecules present in the sample is calculated for 3-methylhistidine using MIDA.

[2] = Toxicity observation during maintained body water enrichment with ^2H2O; type: in vivo; conditions: levels maintained for weeks or months; >100 human subjects; rapid changes in body water enrichment prevented
From the text: Relatively high body water enrichments of ^2H2O (e.g., 1-10% of the total body water is labeled) may be achieved using the techniques of the invention. This water enrichment is relatively constant and stable as these levels are maintained for weeks or months in humans and in experimental animals without any evidence of toxicity (FIGS. 3-5). This finding in a large number of human subjects (>100 people) is contrary to previous concerns about vestibular toxicities at high doses of ^2H2O. Applicants have discovered that as long as rapid changes in body water enrichment are prevented (e.g., by initial administration in small, divided doses), high body water enrichments of ^2H2O can be maintained with no toxicities. For example, the low expense of commercially available ^2H2O allows long-term maintenance of enrichments in the 1-5% range at relatively low expense (e.g., calculations reveal a lower cost for 2 months labeling at 2% ^2H2O enrichment, and thus 7-8% enrichment in the alanine precursor pool (FIGS. 6A-B), than for 12 hours labeling of ^2H-leucine at 10% free leucine enrichment, and thus 7-8% enrichment in leucine precursor pool for that period).

[3] = Body water ^2H2O enrichment during oral ^2H2O intake; type: in vivo, human

Row | SMILES | k: replacement rate constant of 3-methyl-histidine [1] | toxicity at high body water enrichments of ^2H2O [2] | stability of ^2H2O enrichment in body water (precursor pool) ([3]; human subjects drank 50-100 ml ^2H2O daily for 10-12 weeks (FIG. 4)) | ^2H2O (%): body water enrichment ([3]; human subjects, intake of ^2H2O for 4-8 weeks)
1 | Cn1cncc1C[C@H](N)C(=O)O [3-methyl-histidine] | 0.037 day⁻¹ | – | – | –
2 | [2H]O[2H] [^2H2O] | – | no toxicities | stable over a period of weeks | 1.8%

Source: patent publication US8084016B2, “Measurement of biosynthesis and breakdown rates of biological molecules that are inaccessible or not easily accessible to direct sampling, non-invasively, by label incorporation into metabolic derivatives and catabolitic products” (The Regents of the University of California, priority 2002, dated 2011)
